The results in this text go back to patent US12295940B2, “Viral inhibitors, the synthesis thereof, and intermediates thereto” (Takeda Pharmaceutical Company Limited, priority 2022, dated 2025).

The format of data set [1] is physicochemical. How it is done: The following solubility data was generated and referenced in one or more of the prior examples. A mixture of approx. 2 g of maribavir and 5 mL solvent was stirred overnight in sealed vials at different temperatures. The clear supernatant solutions were sampled for […] assay. All examples were done in triplicates. Table 3-5. Maribavir solubilities in iPrOAc and toluene.

The nature of data set [2]: Stability data of process systems (Example 3-23). Particulars: 7 days. It counts as physicochemical. Here is the method: The following stability data was generated and referenced in one or more of the prior examples. Stability of the following systems were studied and found to be stable for at least 7 days: Stability of Compound 3 HCl in MeOH/TBME at 40° C.; Stability of reaction mixture at 40° C. (amount of maribavir); Stability of biphasic mixture at 40° C. (before extraction); Stability of biphasic mixture at 40° C. (during last NaCl washing); Stability of reaction mixture after final distillation step at Stability of biphasic mixture at 75° C.; Stability of reaction mixture after final distillation step at 90° C.; Stability of crystallization mixture after dosage of 2nd portion of toluene at reflux; Stability of crystallization at 20° C.; Stability of mixture during slurry wash at 20-25° C.; Stability of maribavir in the mother liquor at 20-25° C.; Stability of wet cake at 70° C.; and Stability of dry cake at 70° C.

The format of data set [3] is physicochemical. The note with it: pH 4. The text has this: A preliminary test was done to determine the lower pH to be tested: Three samples of the biphasic mixture during 1st NaCl-wash was taken and adjusted separately to pH 4, 5, and 6. These samples were refluxed overnight and sampled for HPLC purity at different time points. […] It was observed that at lower pH values, some white precipitate occurred. This precipitate dissolved upon raising the pH with NaOH. It was assumed that this was the hydrochloride salt of maribavir. Upon further review, at pH<5.5, the precipitate occurred. Therefore, the lowest pH tested was 6. The distilled reaction mixtures were subjected to crystallization on a 400 ml Easymax scale.

As for `CC(C)Nc1nc2cc(Cl)c(Cl)cc2n1[C@H]1O[C@@H](CO)[C@H](O)[C@@H]1O` [Maribavir, (2S,3S,4R,5S)-2-(5,6-dichloro-2-(isopropylamino)-1H-benzo[d]imidazol-1-yl)-5-(hydroxymethyl)tetrahydrofuran-3,4-diol], the “Solubility in iPrOAc (in words)” value in data set [1] is on record as “good solubility”. Also, in data set [2], the “Stability (time found stable)” value is recorded as “at least 7 days”. Further, the “Stability by HPLC purity (in words)” value in data set [3] is “perfect stability”.
